The results in this text go back to patent US5463071A, “5-membered heterocyclic compounds, processes for preparing them and pharmaceutical compositions containing these compounds” (Dr. Karl Thomae GmbH, priority 1991, dated 1995).

One data set relates to human thrombocytes. Description: Fibrinogen binding to human thrombocytes (125I fibrinogen, gel-filtered platelets). To be noted: ADP, 20 minutes at ambient temperature, read-out: Fibrinogen-binding test IC50. Here is the method:
1. Fibrinogen binding to human thrombocytes The blood obtained by puncturing an antecubital vein is anticoagulated with trisodium citrate (final concentration: 13 mM) and centrifuged for 10 minutes at 170×g. The supernatant platelet-rich plasma is poured onto a Sepharose 2B column (Pharmacia) and eluted with a solution of 90 mM common salt, 14 mM trisodium citrate, 5 mM glucose and 50 mM Tris(hydroxymethyl)aminomethane, adjusted to pH 7.4. The gel-filtered platelets (GFP) appearing before the plasma proteins are used for the binding experiments. 50 μl of a 60 mM calcium chloride solution, 50 μl of a 0.6 mM adenosine diphosphate solution, 100 μl of substance solution or solvent and 50 μl of fibrinogen solution (containing 3 μg of ^125 I fibrinogen) are added to 750 μl of GFP and incubated for 20 minutes at ambient temperature. The non-specific binding is determined in the presence of 3 mg/ml of cold fibrinogen. 900 μof the incubated material are carefully pipetted onto 250 μof silicon oil (AP 38: AR 20, 1:2 v/v, Wacker Chemie) in Eppendorf tubes and centrifuged for 2 minutes at 10,000×g. The aqueous supernatant and part of the oil are drawn off, the tips of the tubes are cut off together with the platelet pellet and the quantity of bound fibrinogen is determined in a gamma counter. The concentration of substance which brings about a 50% inhibition in fibrinogen binding is determined from a series of concentrations and is given as the IC50 value.

Data set [1] has as its system collagen-induced platelet aggregation in platelet-rich plasma. Nature of the data set: Antithrombotic activity: inhibition of collagen-induced thrombocyte (platelet) aggregation, Born and Cross method. It counts as cell-based, healthy volunteers (human). To be noted: Homo sapiens, 10 minutes preincubation at 37° C. Here is the method:
2. Antithrombotic activity Method The thrombocyte aggregation is measured using the Born and Cross method (J. Physiol. 170: 397 (1964)) in platelet-rich plasma taken from healthy volunteers. To inhibit coagulation the blood is mixed with 3.14% sodium citrate in a ratio by volume of 1:10. Collagen-induced aggregation The pattern of the decrease in optical density of the platelet suspension is photometrically measured and recorded after the addition of the aggregation-triggering substance. The rate of aggregation is concluded from the angle of inclination of the density curve. The point on the curve where there is maximum light transmittance is used to calculate the optical density. The amount of collagen used is as small as possible but sufficient to produce an irreversible reaction curve. Standard commercial collagen produced by Hormonchemie of Munich is used. Before the addition of the collagen the plasma is incubated for 10 minutes with the substance at 37° C. From the measurements obtained an EC50 is determined graphically, indicating a 50% change in the optical density in terms of the inhibition of aggregation.

Data set [2] in a line: Tolerance after intravenous administration to mice. Type of data set: in vivo. To be noted: 30 mg/kg intravenous, three mice each.

SMILES strings stand for the structures. pEC50, pIC50: −log10 of the molar value.

`N=C(N)c1ccc(-c2ccc(-n3cnc(CCC(=O)O)c3)nn2)cc1` [Example 1]: the pIC50 (as a rule, the negative decadic logarithm of the IC50, by convention in mol/L) with human thrombocytes is 7.14. Also, the pEC50 (commonly the EC50 on a negative log10 scale, so that one unit is a factor of ten) in data set [1] is 6.89. Further, in data set [2], the “deaths after intravenous administration” value is recorded as “no animals died”.

Regarding `Cl.N=C(N)c1ccc(-c2ccc(-n3cnc(CC(N)C(=O)O)c3)nn2)cc1` (stereo not drawn) [1(2), 1-[6-(4-amidino-phenyl)-3-pyridazinyl]-4-(2-amino-2-carboxy-ethyl)-imidazole-hydrochloride], the negative logarithm of the IC50 (pIC50) with human thrombocytes was 7.74. This molecule had a pEC50 in data set [1] of 7.05. Also, in data set [2], the “deaths after intravenous administration” value was “no animals died”.
